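How tested: cells in 96-well plates exposed to compound for 48 hours at five concentrations. The concentration for full growth arrest is given as TGI.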
How the values were obtained:
Test in all cases: growth of human tumour cells (NCI), 48 h
[1] = system: CCRF-CEM leukemia
[2] = system: COLO 205 colon
[3] = system: EKVX NSCLC
[4] = system: HT29 colon
[5] = system: IGROV1 ovarian
[6] = system: K-562 leukemia
[7] = system: LOX IMVI melanoma
[8] = system: MOLT-4 leukemia
[9] = system: NCI-H460 lung
[10] = system: OVCAR-3 ovarian
[11] = system: RPMI-8226 leukemia
[12] = system: SF-268 CNS
[13] = system: SF-539 CNS
[14] = system: SK-MEL-28 melanoma
[15] = system: SK-OV-3 ovarian
[16] = system: SNB-19 CNS
[17] = system: SW-620 colon
[18] = system: TK-10 renal
[19] = system: UACC-62 melanoma
[20] = system: UO-31 renal

Structure (SMILES) | TGI [1] [µM] | TGI [2] [µM] | TGI [3] [µM] | TGI [4] [µM] | TGI [5] [µM] | TGI [6] [µM] | TGI [7] [µM] | TGI [8] [µM] | TGI [9] [µM] | TGI [10] [µM] | TGI [11] [µM] | TGI [12] [µM] | TGI [13] [µM] | TGI [14] [µM] | TGI [15] [µM] | TGI [16] [µM] | TGI [17] [µM] | TGI [18] [µM] | TGI [19] [µM] | TGI [20] [µM]
CCOC(=O)C1=NN(c2ccc(Cl)cc2)C2=CC(C)=NN(C)C(=S)N21 | > 100 | > 100 | 81.9 | > 100 | > 100 | > 100 | > 100 | > 100 | > 100 | > 100 | > 100 | > 100 | 56.5 | > 100 | 94.4 | > 100 | > 100 | 62 | > 100 | > 100
COc1ccc(/C=N/n2cnc3c(c2=O)S/C(=C2/SC(=S)N(c4ccc(C)cc4)C2=O)N3c2ccccc2)cc1 | > 100 | > 100 | > 100 | > 100 | > 100 | > 10 | > 100 | > 10 | > 100 | 74.2 | > 100 | 99.5 | > 100 | > 100 | > 100 | 83.5 | > 100 | > 100 | 51.9 | > 100

From PubChem BioAssay (NCI)
